The record followed here is patent US20080183282A1, “Use of lipid conjugates for the coating of stents and catheters” (priority 2006, published 2008).

In this assay the test system is Naja Naja Snake Venom PLA2 enzyme. In words: In vitro fluorometric PLA2 inhibition assay. It counts as biochemical. Particulars: 0.1 mg/ml. The method, then:
The reaction of the PLA2 enzyme and the PLA2 enzyme substrate 2-(6-(7-nitrobenz-2-oxa-1,3diazol-4-yl)amino) hexanoyl-1-hexadecanoyl-sn-glycero-3-phosphocholine (NHGP) yields a product, which can be detected using a fluorometer. […] indicates inhibition of the PLA2 enzyme.
Compound XXII and Compound XXV were solubilized and diluted in D-PBS, and tested at final concentrations of […], 0.125, 0.25, 0.5 and 1 mg/ml. […] 1 mM NHGP was diluted in D-PBS, for a final concentration of 1 μM. The positive control, Mefenamic Acid (Sigma, M-4267), was tested at a final concentration of 0.1 mg/ml. The PLA2 enzyme is derived from the Naja Naja Snake Venom (Sigma, P6139) and tested at a final concentration of 5 Units/ml. The reaction was carried out in 200 μl solution and initiated by addition of substrate. Fluorescence was read immediately and then every minute for 30 minutes for a total of 30 readings. The fluorometer was set as follows: Excitation 450/50; Emission 530/25; Gain 50.

Turning to `Cc1cccc(Nc2ccccc2C(=O)O)c1C` [mefenamic acid, Mefenamic Acid], the “inhibition of the PLA2 enzyme” value is 41%.
